How the values were obtained:
HCV 1a replicon = assay: HCV GT1a replicon assay in Huh-7 cells; assay type: cell-based, Hepatitis C virus; conditions: Hepatitis C virus; Huh-7 cells transfected with HCV replicon, 72 hours incubation; read-out: EC50 against HCV 1a genotype
Method: (§1) HCV Replicon System was utilized as an evaluation model in the present disclosure for verifying the effects of the compounds disclosed herein on HCV. An HCV Replicon assay was first described in Science, 1999, 285 (5424), 110-3. […] To determine the potential anti-HCV effects of the test compounds, luciferase assay and antibiotic Neomycin resistance gene were tested according to the method described in Science. 1999 Jul. 2; 285 (5424), 110-3 and J. Virol. 2003 March; 77 (5), 3007-19.
(§2) In a word, the compounds disclosed herein were tested by using human hepatic carcinoma cell line which is transfected stably HCV GT1a, GT1b or GT2a replicon respectively, and resistant cells Y93H, L31F, P32L or I302V and wild-type cells HCV 1b. HCV Replicon System disclosed herein containing Neomycin resistance gene and Luciferase Reporter Gene, the level of HCV replication in host cells is characterized by the expression level of the NEO gene expression level or Luciferase Reporter Gene, and the effects of the compounds herein inhibit HCV replication can be evaluated. In this article, a real-time quantitative polymerase chain reaction (qPCR) method was used to detect NEO gene expression level, and chemiluminescence method was used to test Luciferase Reporter Gene expression level.
(§3) 1. Test Method for Measuring EC50 of the Compounds Base on Luciferase Assay.
(§4) The Huh-7 cells transfected with HCV replicons system were seeded into 96-well plates (8,000 cells in 125 μL/well) respectively; each test compound was diluted to desired concentration using 5-fold serial dilutions protocol, 10 doses in duplicate, and added to wells with POD™ 810 Plate Assembler. […] In this paper, experiments were repeated twice and set the holes without compounds as negative control.
(§5) 2. Test Method for Measuring EC50 of the Compounds by Detecting Antibiotic G418 Resistance Gene NEO Gene.
(§6) In this paper, experiments were repeated twice and set the holes without compounds as negative control.

HCV 1b replicon = assay: HCV GT1b replicon assay in Huh-7 cells; assay type: cell-based, Hepatitis C virus; conditions: Hepatitis C virus; Huh-7 cells transfected with HCV replicon, 72 hours incubation; read-out: EC50 against HCV 1b genotype
Method: as §1, §2, §3, §4, §5, §6

Row | SMILES | EC50 (HCV 1a replicon) | EC50 (HCV 1b replicon)
1 | COC(=O)N[C@H](C(=O)N1CCC[C@H]1c1ncc(-c2ccc(-c3ncc(-c4ccc5nc([C@@H]6CCCN6C(=O)[C@@H](NC(=O)OC)C(C)C)[nH]c5c4)c4c3CC3(CCCC3)C4)c3c2CCC3)[nH]1)C(C)C [Example 30] | 0.336 nM | 0.052 nM
2 | COC(=O)N[C@H](C(=O)N1CCC[C@H]1c1ncc(-c2ccc(-c3ncc(-c4ccc5nc([C@@H]6CCCN6C(=O)[C@@H](NC(=O)OC)C(C)C)[nH]c5c4)c4c3CC3(CCCC3)C4)c3ccccc23)[nH]1)C(C)C [Example 31] | 5.87 nM | 0.539 nM
3 | COC(=O)N[C@H](C(=O)N1CCC[C@H]1c1ncc(-c2ccc(-c3sc(-c4ccc5nc([C@@H]6CCCN6C(=O)[C@@H](NC(=O)OC)C(C)C)[nH]c5c4)c4c3CC3(CCCC3)C4)c3cnoc23)[nH]1)C(C)C [Example 32] | 10.3 nM | 0.446 nM
4 | COC(=O)NC(C(=O)N1CCC[C@H]1c1ncc(-c2ccc(-c3cc(F)c(-c4ccc5nc([C@@H]6CCCN6C(=O)[C@@H](NC(=O)OC)C(C)C)[nH]c(=O)c5c4)c4c3CC3(CCCC3)C4)nc2)[nH]1)C(C)C (some centres unmarked) [Example 33] | 0.078 nM | 0.022 nM
5 | COC(=O)NC(C(=O)N1CCC[C@@H]1c1ncc(-c2ccc(-c3ccc(-c4ccc5nc([C@@H]6CCCN6C(=O)[C@@H](NC(=O)OC)C(C)C)[nH]c(=O)c5c4)c4c3CC3(CCCC3)C4)cc2)[nH]1)C(C)C (some centres unmarked) [Example 34] | 0.641 nM | 0.055 nM
6 | COC(=O)NC(C(=O)N1CCCC1c1cc(=O)c2cc(-c3ccc(-c4ccc(-c5cnc(C6CCCN6C(=O)C(NC(=O)OC)C(C)C)[nH]5)cc4)c4c3CC3(CCCC3)C4)ccc2[nH]1)C(C)C (centres unmarked) [Example 35] | 10.6 nM | 0.103 nM
7 | COC(=O)NC(C(=O)N1CCCC1C1=Nc2cc(-c3ccc(-c4ccc(-c5cnc(C6CCCN6C(=O)C(NC(=O)OC)C(C)C)[nH]5)cc4)c4c3CC3(CCCC3)C4)ccc2C(C)(C)N1)C(C)C (centres unmarked) [Example 36] | 0.438 nM | 0.062 nM

Source: patent publication US9416139B2, “Spiro ring compound as hepatitis C virus (HCV) inhibitor and uses thereof” (SUNSHINE LAKE PHARMA CO., LTD., priority 2012, dated 2016)
